Data reported in PubChem BioAssay (NCI).
“And” between values parts separate entries of the source, which are not always exact repeats. Equal entries are not always repeated.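 A five-concentration, 48-hour dose response in 96-well plates underlies each endpoint, interpolated linearly between surrounding concentrations. GI50 is the concentration that inhibits growth by half. TGI denotes the concentration required for complete inhibition of growth.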

Key:
Assay in all cases: NCI tumour cell line growth inhibition, 48 h
DLD-1 colon = test system: DLD-1 colon
KM20L2 colon = test system: KM20L2 colon
DMS 114 small cell lung = test system: DMS 114 small cell lung
DU-145 prostate = test system: DU-145 prostate
PC-3 prostate = test system: PC-3 prostate
MDA-N = test system: MDA-N
HS 578T breast = test system: HS 578T breast
XF 498 CNS = test system: XF 498 CNS
RXF-631 renal = test system: RXF-631 renal
SN12K1 renal = test system: SN12K1 renal
P388 leukemia = test system: P388 leukemia
P388/ADR leukemia = test system: P388/ADR leukemia

Structure (SMILES) | TGI (DLD-1 colon) | TGI (KM20L2 colon) | TGI (DMS 114 small cell lung) | TGI (XF 498 CNS) | TGI (RXF-631 renal) | further results
COc1cccc(C(=O)O)c1Cc1cccc2ccccc12 | > 100 µM | > 100 µM | – | – | – | –
C/C(=C\c1ccccc1)C(O)S(=O)(=O)O (centres undefined) | > 100 µM | > 100 µM | > 100 µM | – | – | –
S=C1SC2(CCCCCC2)NC2=C1CCCCC2 | – | – | – | – | – | TGI (DU-145 prostate): > 100 µM; TGI (PC-3 prostate): > 100 µM; TGI (MDA-N): > 100 µM; TGI (HS 578T breast): 47.6 µM
O=C(O)C1(C(=O)O)CCN(S(=O)(=O)c2ccccc2)CC1 | – | – | – | – | – | TGI (DU-145 prostate): > 100 µM; TGI (PC-3 prostate): > 100 µM; TGI (MDA-N): > 100 µM; TGI (HS 578T breast): > 100 µM
CC(=O)N1C(=O)C(=O)c2cc(Cl)ccc21 | > 100 µM | – | > 100 µM | 65.2 µM | > 100 µM | –
O=C1c2ccccc2C(=O)N1C/C=N/NS(=O)(=O)c1ccc(Cl)cc1 | > 100 µM | > 100 µM | > 100 µM | > 100 µM | > 100 µM | –
CN1C(=O)NC2(O)c3ccccc3C(=O)C12O (centres undefined) | > 100 µM | > 100 µM | > 100 µM | > 100 µM | – | –
CCCC(=O)C(CC)/C(CCC(=O)N(Cc1ccccc1)Cc1ccccc1)=N/NC(=O)C[N+](C)(C)C (centres undefined) | > 100 µM | > 100 µM | > 100 µM | > 100 µM | – | –
CCC1N2CCCCC2[C@@H]2c3[nH]c4ccccc4c3CCN12 (some centres undefined) | > 100 µM | > 100 µM | > 100 µM | > 100 µM | > 100 µM | –
NCC(=O)OCN1C(=O)C2C3C=CC(C2C1=O)C1C2C(=O)N(COC(=O)CN)C(=O)C2C31 (centres undefined) | 54.2 µM and 60.8 µM | 52.9 µM and 81.9 µM | 39 µM and 36.8 µM | 54.7 µM and 64.1 µM | – | –
COc1cc([N+](=O)[O-])c(S(=O)(=O)O)cc1-n1nc(-c2ccccc2)n[n+]1-c1cc(S(=O)(=O)[O-])c([N+](=O)[O-])cc1OC | – | – | – | – | – | TGI (DU-145 prostate): > 100 µM; TGI (PC-3 prostate): > 100 µM; TGI (MDA-N): > 100 µM; TGI (HS 578T breast): > 100 µM
COc1cc(C(C)c2cc3c(cc2OCCOCCOc2cc4c(cc2C(C)c2cc(OC)c(OC)c(OC)c2)OCO4)OCO3)cc(OC)c1OC (centres undefined) | > 100 µM | > 100 µM | > 100 µM | > 10 µM | > 100 µM | GI50 (DLD-1 colon): > 100 µM; GI50 (KM20L2 colon): > 100 µM; GI50 (DMS 114 small cell lung): > 100 µM; GI50 (RXF-631 renal): > 100 µM
C=CCCC12CCCC(=O)C1Sc1ccc3ccccc3c12 (centres undefined) | 71.5 µM | – | – | – | 34 µM | –
CCCCCCCCCCSS(=O)(=O)c1ccc(C)cc1 | 29.8 µM | 33.3 µM | 30.4 µM | 26 µM | 17.2 µM | –
CC(=O)[CH-]C(=O)c1ccccc1.CC(=O)[CH-]C(=O)c1ccccc1.CC(C)CCCC(C)[C@H]1CCC2[C@@H]3CCC4C[C@@H]([O-])CC[C@]4(C)C3CC[C@@]21C.CC(C)CCCC(C)[C@H]1CCC2[C@@H]3CCC4C[C@@H]([O-])CC[C@]4(C)C3CC[C@@]21C.Cl.[Ti+4] (some centres undefined) | > 25 µM | > 25 µM | – | – | – | GI50 (DLD-1 colon): > 25 µM; GI50 (KM20L2 colon): > 25 µM
CC(C)[C@H](COC(C)(C)C)N=CN1CSc2ccccc21 | > 100 µM | > 100 µM | 62.1 µM | 47.8 µM | > 100 µM | –
COc1ccc2c(CCNS(=O)(=O)c3ccccc3)c(C(C)=O)[nH]c2c1[N+](=O)[O-] | – | > 100 µM | – | – | > 100 µM | –
COC(=O)/C=C\C1C(C(=O)OC)C2(C(=O)OC)CCC1(C(=O)OC)N2 (centres undefined) | 12.4 µM | > 61.8 µM | – | 34.3 µM | 48.7 µM | –
O=c1c2cc(-c3ccccc3)sc2nc2sc(-c3ccccc3)nn12 | > 100 µM | > 100 µM | > 100 µM | > 100 µM | > 100 µM | –
Cc1ccc(S(=O)(=O)NC(C)C(=O)O)cc1 (centres undefined) | > 100 µM | > 100 µM | – | > 100 µM | > 100 µM | –
COC(=O)c1c(C(=O)OC)c(C(=O)OC)c(C(=O)OC)c1C(=O)OC | > 100 µM | > 100 µM | > 100 µM | – | > 100 µM | –
CCN(CC)CCNc1ccc(CO)c2sc3ccccc3c(=O)c12 | – | 18.4 µM and 22.6 µM | 27.5 µM and 23 µM | 24.5 µM | – | TGI (SN12K1 renal): 17.4 µM; GI50 (DU-145 prostate): 2.99 µM; TGI (DU-145 prostate): 9.87 µM and 27.6 µM; GI50 (PC-3 prostate): 3.65 µM; TGI (PC-3 prostate): 17.5 µM and 17.8 µM; TGI (P388 leukemia): 8.68 µM; TGI (MDA-N): 16.6 µM; GI50 (HS 578T breast): 4.26 µM and 9.64 µM; TGI (HS 578T breast): 24.8 µM and 26.8 µM; TGI (P388/ADR leukemia): 31.3 µM
C#Cc1cccc(N2C(=O)CC(=P(c3ccccc3)(c3ccccc3)c3ccccc3)C2=O)c1 | > 100 µM | – | 72.6 µM | 38.8 µM | – | –
CN1NC(c2ccccc2)=C(C#N)C(=O)CC1c1ccccc1Cl (centres undefined) | > 100 µM | – | > 100 µM | > 100 µM | > 100 µM | –
CCC(=O)[O-].CCC(=O)[O-].N.N.N.N.[Co+3].[O-][Cl+3]([O-])([O-])[O-] | > 100 µM | > 100 µM | – | – | – | GI50 (DLD-1 colon): > 100 µM; GI50 (KM20L2 colon): > 100 µM
COc1ccc(S(=O)(=O)N2CCCCC2)cc1NC(=O)c1[nH]c(C)c2c1CCCCC2=O | – | – | – | – | – | GI50 (DU-145 prostate): 7.56 µM; TGI (DU-145 prostate): > 100 µM; GI50 (PC-3 prostate): 2.6 µM; TGI (PC-3 prostate): > 100 µM; GI50 (HS 578T breast): 1.45 µM; TGI (HS 578T breast): > 100 µM
COc1cc2c(c(OC)c1OC)C(=O)c1c-2n(CCCN)c(=O)c2cc([N+](=O)[O-])ccc12 | – | – | – | – | – | GI50 (DU-145 prostate): 0.962 µM; TGI (DU-145 prostate): 2.31 µM; GI50 (PC-3 prostate): 0.736 µM; TGI (PC-3 prostate): 3.43 µM; GI50 (HS 578T breast): 2 µM; TGI (HS 578T breast): 4.99 µM
CC(C)NCCCNC1=C(Cl)C(=O)c2ccccc2C1=O | – | – | – | – | – | GI50 (DU-145 prostate): 1.98 µM; TGI (DU-145 prostate): 3.49 µM; GI50 (PC-3 prostate): 3.92 µM; TGI (PC-3 prostate): 20.7 µM; GI50 (HS 578T breast): 2.93 µM; TGI (HS 578T breast): 9.02 µM
